{"source": "paper PMC10101059", "about": "“Rational Design of Stapled Antimicrobial Peptides to Enhance Stability and In Vivo Potency against Polymicrobial Sepsis” (Microbiology Spectrum, 2023)", "format_in_all_cases": "cell-based", "key": {"[1]": {"test_system": "murine macrophage (RAW 264.7)", "experiment": "alamarBlue cytotoxicity assay", "conditions": "at 1.56 μM, 24 h", "description": "(§1) (i) Cell culture. Human skin keratinocytes (HaCaT), human kidney (HK-2), and RAW 264.7 macrophage cells were obtained from the Bioresource Collection and Research Center (BCRC, Hsinchu, Taiwan). HaCaT and […] macrophage cells were cultured in Dulbecco’s modified Eagle’s medium (DMEM, Thermo Fischer, MA, USA.) supplemented with 10% FBS, penicillin (100 U/mL), and streptomycin (100 μg/mL) at 37°C under 5% CO2. HK-2 cells were cultured in glucose-free Keratinocyte serum-free medium (K-SFM) supplemented with 0.05 mg/mL bovine pituitary extract (BPE), 5 ng/mL EGF, 100 U/mL penicillin, and […] streptomycin at 37°C in 5% CO2 ([49]).\n(§2) In vitro toxicity assay. The cytotoxicity of TP4-3 was evaluated by an alamarBlue assay. HaCaT, HK-2, and RAW 264.7 macrophage cells were seeded at densities of 1 × 10^4 cells/well in 96-well cell plates and treated with the indicated concentrations of TP4 and TP4-3 for 24 h (0.78 to 100 μM). Cells treated with 0.1% Triton X-100 and culture medium served as negative and positive-control groups, respectively. After incubation, the cells were washed and incubated for 2 h at 37°C with 90 μL Dulbecco’s modified Eagle medium (DMEM) containing 10 μL alamarBlue reagent. Fluorescence was recorded using a Spectra Max i3 Multi-Mode detection platform (Molecular Devices, San Jose, CA) to measure cell viability ([50], [51])."}, "[2]": {"test_system": "human keratinocyte (HaCaT)", "experiment": "alamarBlue cytotoxicity assay", "conditions": "at 0.78 μM, 24 h", "description": "as §1, §2"}, "human kidney cell (HK-2)": {"test_system": "human kidney cell (HK-2)", "experiment": "alamarBlue cytotoxicity assay", "conditions": "at 1.56 μM, 24 h", "description": "as §1, §2"}, "human red blood cells": {"test_system": "human red blood cells", "description": "The hemolytic assay was performed after approval from the institutional ethics committee (Academia Sinica Institutional Review Board [IRB]; ID no. AS-IRB02-111075). Blood was collected from healthy humans, and 50 μL of a 2% blood cell suspension in normal saline was treated with an equal volume of peptide at different concentrations. The mixture was then incubated at 37 ± 2°C for 1 h. Next, the cell suspension was centrifuged at 1,000 × g for 10 min. Percent hemolysis was estimated by the absorbance of treated and control supernatant samples at 540 nm ([23], [44])."}}, "note": "Peptide text beside a SMILES is read from it."}
{"smiles": "CC[C@H](C)[C@H](NC(=O)[C@H](C)NC(=O)[C@H](CCCCN)NC(=O)CNC(=O)[C@H](C)NC(=O)[C@H](CO)NC(=O)[C@H](Cc1ccccc1)NC(=O)[C@H](CC(C)C)NC(=O)CNC(=O)CNC(=O)[C@@H](NC(=O)[C@@H](NC(=O)[C@H](Cc1cnc[nH]1)NC(=O)[C@H](Cc1cnc[nH]1)NC(=O)[C@@H](NC(=O)[C@@H](N)Cc1ccccc1)[C@@H](C)CC)[C@@H](C)CC)[C@@H](C)CC)C(=O)N[C@@H](Cc1cnc[nH]1)C(=O)N[C@@H](CCCNC(=N)N)C(=O)N[C@@H](CC(C)C)C(=O)N[C@H](C(=O)N[C@@H](CCCNC(=N)N)C(=O)N[C@@H](CCCNC(=N)N)C(=O)N[C@@H](CCCNC(=N)N)C(=O)N[C@@H](CCCNC(=N)N)C(=O)N[C@@H](CCCNC(=N)N)C(=O)O)[C@@H](C)CC", "note": "[TP4, tilapia piscidin 4] (H-FIHHIIGGLFSAGKAIHRLIRRRRR-OH)", "values": [{"measurement": "cell death", "setting": "[1]", "result": "substantial cell death"}, {"measurement": "cell death", "setting": "[2]", "result": "substantial cell death"}, {"measurement": "cell death", "setting": "human kidney cell (HK-2)", "result": "substantial cell death"}, {"measurement": "15% hemolysis concn", "setting": "human red blood cells", "result": "<3.13", "unit": "µM"}]}
